pIC50: −log10 of the molar value. Structures can show the parent of a compound that is named as a salt. Where two headings read alike, the source gives them in different places.
Assays:
[1] = cytotoxic assay, nuclei count (Hoechst, HCS); assay type: cell-based; details: human, MCF7 cells (breast carcinoma); 48 h treatment; read-out: Cytotoxic studies IC50 MCF7
Procedure: (§1) To complete our study, we performed a cytotoxicity screening of the 15 molecules, investigating 7 representative cancer cell lines. The compound’s effect on cell viability was evaluated on Huh-7 (hepatocellular carcinoma), CaCo2, HCT-116 (colorectal adenocarcinoma), MCF7, MDA-MB231, MDA-MB468 (breast carcinoma), PC3 (prostate carcinoma) and NCI-H727 (lung carcinoid). Human skin fibroblasts were used as reference for non-cancerous cells. Roscovitine, Doxorubicin and Taxol were used as positive controls. The cells were treated for 48 h with 25 µM compounds and fixed in cooled 90% ethanol/5% acetic acid for 20 min. The nuclei were stained with Hoechst 33342 and counted using HCS technology.
(§2) HuH7, CaCo-2, MDA-MB-231, HCT116, PC3, MCF7 and NCI-H727 cancer cell lines were obtained from the ECACC collection (Porton Down, UK). Cells were grown at 37 °C, 5% CO2 in ECACC recommended media: DMEM for HuH7, MDA-MB-231 and fibroblast, EMEM for MCF7and CaCo-2, McCoy’s for HCT116 and RPMI for PC3 and NCI-H727. All culture media were supplemented with 10% of FBS, 1% of penicillin-streptomycin and 2 mM glutamine.
(§3) Chemicals were solubilized in DMSO at a concentration of 10 mM (stock solution) and diluted in culture medium to the desired final concentrations.
(§4) The cytotoxic assay of chemical was performed at 25 µM. Cells were plated in 96 wells plates (4000 cells/well). Twenty-four hours after seeding, cells were exposed to chemicals. After 48 h of treatment, cells were washed in PBS and fixed in cooled 90% ethanol/5% acetic acid for 20 min and the nuclei were stained with Hoechst 33342 (B2261 Sigma). Image acquisition and analysis were performed using a CellomicsArrayScan VTI/HCS Reader (ThermoScientific, Waltham, MA, USA). The survival percentages were calculated as the percentage of cell number after compound treatment over cell number after DMSO treatment.

[2] = target: T1, Hs_PIM1 (Homo sapiens, UniProt P11309); assay: ADP-Glo kinase assay, primary screen; assay type: biochemical; details: n=2, read-out: % of residual activity Hs_PIM1
T1 construct: host or cells: Sf9 insect cells (baculovirus)
T1 sequence (P11309 whole entry): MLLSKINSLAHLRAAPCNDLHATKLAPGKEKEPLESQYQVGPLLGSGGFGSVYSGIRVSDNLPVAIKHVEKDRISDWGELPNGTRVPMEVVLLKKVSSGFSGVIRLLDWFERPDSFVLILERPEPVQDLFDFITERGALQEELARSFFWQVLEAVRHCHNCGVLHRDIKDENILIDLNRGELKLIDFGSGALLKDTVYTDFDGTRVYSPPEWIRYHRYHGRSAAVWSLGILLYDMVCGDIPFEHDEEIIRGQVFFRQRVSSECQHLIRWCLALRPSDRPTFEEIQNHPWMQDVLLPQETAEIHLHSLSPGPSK

[3] = target: T2, MmCLK1 (Mus musculus, UniProt P22518); assay: ADP-Glo kinase assay; assay type: biochemical; details: for remaining activity at 1 µM / remaining activity at 10 µM: n=2, read-out: % of residual activity Mm_CLK1
T2 construct: host or cells: bacteria
T2 sequence (P22518 whole entry): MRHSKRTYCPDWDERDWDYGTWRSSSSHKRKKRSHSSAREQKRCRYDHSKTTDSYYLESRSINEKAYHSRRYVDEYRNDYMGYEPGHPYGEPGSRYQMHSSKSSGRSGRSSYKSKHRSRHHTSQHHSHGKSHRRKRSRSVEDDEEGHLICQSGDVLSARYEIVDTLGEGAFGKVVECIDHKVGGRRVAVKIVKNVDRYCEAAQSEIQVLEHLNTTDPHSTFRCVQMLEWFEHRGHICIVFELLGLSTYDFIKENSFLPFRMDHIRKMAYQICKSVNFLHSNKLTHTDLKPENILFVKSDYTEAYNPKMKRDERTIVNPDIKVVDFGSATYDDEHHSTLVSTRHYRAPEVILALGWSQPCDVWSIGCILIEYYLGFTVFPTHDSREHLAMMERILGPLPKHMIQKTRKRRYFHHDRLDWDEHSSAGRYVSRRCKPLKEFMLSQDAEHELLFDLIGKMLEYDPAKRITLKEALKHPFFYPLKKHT

[4] = target: T3, Hs_CK1ε (Homo sapiens, UniProt P49674); assay: ADP-Glo kinase assay, primary screen; assay type: biochemical; details: n=2, read-out: % of residual activity Hs_CK1ε
T3 construct: host or cells: Sf9 insect cells (baculovirus)
T3 sequence (P49674 whole entry): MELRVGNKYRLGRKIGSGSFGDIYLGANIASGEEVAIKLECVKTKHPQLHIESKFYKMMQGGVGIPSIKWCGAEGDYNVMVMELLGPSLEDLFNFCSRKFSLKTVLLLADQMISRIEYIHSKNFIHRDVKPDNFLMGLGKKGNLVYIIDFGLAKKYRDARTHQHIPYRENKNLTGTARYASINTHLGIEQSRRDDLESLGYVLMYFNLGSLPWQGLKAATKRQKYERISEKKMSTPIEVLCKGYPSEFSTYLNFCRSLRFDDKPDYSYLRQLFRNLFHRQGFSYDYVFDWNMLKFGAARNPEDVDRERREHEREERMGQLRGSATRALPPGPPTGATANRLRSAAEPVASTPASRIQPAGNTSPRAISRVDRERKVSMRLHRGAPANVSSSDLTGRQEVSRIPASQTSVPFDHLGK

[5] = target: T4, Rn_DYRK1A (Rattus norvegicus, UniProt Q63470); assay: ADP-Glo kinase assay, primary screen; assay type: biochemical; details: n=2, read-out: % of residual activity Rn_DYRK1A
T4 construct: host or cells: bacteria

[6] = target: T5, Hs_CDK5/p25 (Homo sapiens, UniProt Q00535); assay: ADP-Glo kinase assay, primary screen; assay type: biochemical; details: n=2, read-out: % of residual activity Hs_CDK5/p25
T5 construct: host or cells: bacteria
T5 sequence (Q00535 whole entry): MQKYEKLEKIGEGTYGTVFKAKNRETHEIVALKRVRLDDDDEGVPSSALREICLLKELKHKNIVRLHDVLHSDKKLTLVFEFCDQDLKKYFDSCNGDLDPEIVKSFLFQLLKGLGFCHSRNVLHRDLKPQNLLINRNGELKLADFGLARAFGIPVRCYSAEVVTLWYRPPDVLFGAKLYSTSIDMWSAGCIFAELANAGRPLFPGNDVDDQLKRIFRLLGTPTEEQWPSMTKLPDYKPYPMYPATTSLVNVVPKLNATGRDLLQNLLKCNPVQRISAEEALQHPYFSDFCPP
T5 sequence (Q15078 99-307 partner limits assumed): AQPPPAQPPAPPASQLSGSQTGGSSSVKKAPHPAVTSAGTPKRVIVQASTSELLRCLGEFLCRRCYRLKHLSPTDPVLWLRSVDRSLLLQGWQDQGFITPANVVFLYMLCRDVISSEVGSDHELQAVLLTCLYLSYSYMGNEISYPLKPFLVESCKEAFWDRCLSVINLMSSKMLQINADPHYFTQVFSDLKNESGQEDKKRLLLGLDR

[7] = target: T6, HsDYRK1A (Homo sapiens, UniProt Q13627); assay: ADP-Glo kinase assay; assay type: biochemical; details: for remaining activity at 1 µM / remaining activity at 10 µM: n=2, read-out: % of residual activity Hs_DYRK1A
T6 construct: host or cells: Sf9 insect cells (baculovirus)

[8] = cytotoxic assay, nuclei count (Hoechst, HCS); assay type: cell-based; details: human, Caco-2 cells (colorectal adenocarcinoma); 48 h treatment; read-out: Cytotoxic studies IC50 Caco2
[9] = cytotoxic assay, nuclei count (Hoechst, HCS); assay type: cell-based; details: human, HuH7 cells (hepatocellular carcinoma); 48 h treatment; read-out: Cytotoxic studies IC50 HuH7
[10] = cytotoxic assay, nuclei count (Hoechst, HCS); assay type: cell-based; details: human, 48 h treatment
Procedure: as §1, §2, §3
[…] Cells were plated in 96 wells plates (4000 cells/well). Twenty-four hours after seeding, cells were exposed to chemicals. After 48 h of treatment, cells were washed in PBS and fixed in cooled 90% ethanol/5% acetic acid for 20 min and the nuclei were stained with Hoechst 33342 (B2261 Sigma). Image acquisition and analysis were performed using a CellomicsArrayScan VTI/HCS Reader (ThermoScientific, Waltham, MA, USA). The survival percentages were calculated as the percentage of cell number after compound treatment over cell number after DMSO treatment.

[11] = target: T7, Hs_GSK3β (Homo sapiens, UniProt P49841); assay: ADP-Glo kinase assay, primary screen; assay type: biochemical; details: n=2, read-out: % of residual activity Hs_GSK3β
T7 construct: host or cells: Sf9 insect cells (baculovirus)
T7 sequence (P49841 whole entry): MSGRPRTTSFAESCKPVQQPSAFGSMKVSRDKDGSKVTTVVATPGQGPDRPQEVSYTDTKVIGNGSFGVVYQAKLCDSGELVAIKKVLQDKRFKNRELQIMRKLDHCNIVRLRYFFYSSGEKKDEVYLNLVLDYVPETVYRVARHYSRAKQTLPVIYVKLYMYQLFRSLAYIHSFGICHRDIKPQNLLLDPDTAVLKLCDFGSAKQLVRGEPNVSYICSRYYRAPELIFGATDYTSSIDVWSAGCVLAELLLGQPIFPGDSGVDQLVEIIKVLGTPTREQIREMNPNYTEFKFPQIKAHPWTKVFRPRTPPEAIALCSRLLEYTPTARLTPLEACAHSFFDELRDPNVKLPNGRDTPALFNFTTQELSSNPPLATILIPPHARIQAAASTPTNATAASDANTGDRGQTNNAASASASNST

[12] = cytotoxic assay, nuclei count (Hoechst, HCS); assay type: cell-based; details: human, MDA-MB-231 cells (breast carcinoma); 48 h treatment; read-out: Cytotoxic studies IC50 MDA-MB-231
[13] = target: T8, Hs_CDK9/CyclinT (Homo sapiens, UniProt P50750); assay: ADP-Glo kinase assay, primary screen; assay type: biochemical; details: n=2, read-out: % of residual activity Hs_CDK9/CyclinT
T8 construct: host or cells: Sf9 insect cells (baculovirus)
T8 sequence (P50750 whole entry): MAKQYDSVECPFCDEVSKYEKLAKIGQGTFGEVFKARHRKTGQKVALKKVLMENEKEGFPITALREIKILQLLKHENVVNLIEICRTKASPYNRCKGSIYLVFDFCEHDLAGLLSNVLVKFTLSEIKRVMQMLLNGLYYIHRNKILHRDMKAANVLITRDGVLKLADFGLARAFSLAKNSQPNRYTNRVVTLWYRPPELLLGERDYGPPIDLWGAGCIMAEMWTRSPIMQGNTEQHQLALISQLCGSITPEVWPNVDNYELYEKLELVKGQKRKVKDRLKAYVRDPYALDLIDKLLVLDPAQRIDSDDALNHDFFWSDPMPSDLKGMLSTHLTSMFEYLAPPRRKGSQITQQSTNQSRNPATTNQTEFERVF
T8 sequence (O60563 whole entry partner): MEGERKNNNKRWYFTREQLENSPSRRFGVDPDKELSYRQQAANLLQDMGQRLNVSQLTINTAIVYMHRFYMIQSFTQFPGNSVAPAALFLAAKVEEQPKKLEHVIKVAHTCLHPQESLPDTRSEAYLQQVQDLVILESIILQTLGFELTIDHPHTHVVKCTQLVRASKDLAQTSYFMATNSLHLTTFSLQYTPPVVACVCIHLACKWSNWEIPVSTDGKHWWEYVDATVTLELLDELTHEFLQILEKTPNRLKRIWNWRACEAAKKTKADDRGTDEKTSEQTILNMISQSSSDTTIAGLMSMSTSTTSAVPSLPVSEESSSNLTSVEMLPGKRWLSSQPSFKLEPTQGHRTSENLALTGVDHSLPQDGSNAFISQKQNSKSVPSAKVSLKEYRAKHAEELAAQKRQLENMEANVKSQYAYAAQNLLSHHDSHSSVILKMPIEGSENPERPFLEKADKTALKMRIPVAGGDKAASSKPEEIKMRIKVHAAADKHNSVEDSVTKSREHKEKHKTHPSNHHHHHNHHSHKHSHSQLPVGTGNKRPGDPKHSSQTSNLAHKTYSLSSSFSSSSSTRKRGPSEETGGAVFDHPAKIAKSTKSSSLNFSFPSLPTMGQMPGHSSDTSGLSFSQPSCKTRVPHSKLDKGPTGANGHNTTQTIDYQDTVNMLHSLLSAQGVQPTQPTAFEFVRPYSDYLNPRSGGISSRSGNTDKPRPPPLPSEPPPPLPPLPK

[14] = cytotoxic assay, nuclei count (Hoechst, HCS); assay type: cell-based, human; details: human, human skin fibroblasts (non-cancerous reference cells); 48 h treatment; some cells add low/moderate/high amplitude; read-out: Cytotoxic studies IC50 Fibroblasts
Procedure: as §1, §2, §3, §4

[15] = target: T9, Hs_HASPIN (Homo sapiens, UniProt Q8TF76); assay: ADP-Glo kinase assay, primary screen; assay type: biochemical; details: n=2, read-out: % of residual activity Hs_HASPIN
T9 construct: host or cells: bacteria
T9 sequence (Q8TF76 1-798): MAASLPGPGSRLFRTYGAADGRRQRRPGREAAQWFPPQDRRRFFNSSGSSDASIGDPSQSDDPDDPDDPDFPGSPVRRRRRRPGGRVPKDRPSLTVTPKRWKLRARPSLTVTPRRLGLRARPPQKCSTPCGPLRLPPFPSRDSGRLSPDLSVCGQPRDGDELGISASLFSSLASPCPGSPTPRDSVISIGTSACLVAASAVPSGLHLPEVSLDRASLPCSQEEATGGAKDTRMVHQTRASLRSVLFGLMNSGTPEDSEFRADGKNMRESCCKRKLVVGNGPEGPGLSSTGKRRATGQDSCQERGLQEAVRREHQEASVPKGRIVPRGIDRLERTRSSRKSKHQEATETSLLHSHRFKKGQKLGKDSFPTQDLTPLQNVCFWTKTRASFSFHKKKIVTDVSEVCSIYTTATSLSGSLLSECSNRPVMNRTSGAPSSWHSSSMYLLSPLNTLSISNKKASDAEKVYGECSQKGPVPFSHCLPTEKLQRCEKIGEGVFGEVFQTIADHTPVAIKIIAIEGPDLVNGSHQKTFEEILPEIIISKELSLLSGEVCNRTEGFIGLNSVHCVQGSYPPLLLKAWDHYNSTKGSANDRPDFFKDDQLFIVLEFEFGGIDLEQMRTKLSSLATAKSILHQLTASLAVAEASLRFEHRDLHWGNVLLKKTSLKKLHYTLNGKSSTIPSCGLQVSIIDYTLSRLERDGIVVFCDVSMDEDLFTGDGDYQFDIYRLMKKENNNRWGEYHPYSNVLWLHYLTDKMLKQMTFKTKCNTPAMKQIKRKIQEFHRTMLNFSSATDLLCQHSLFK

[16] = HCT116 cells (colorectal adenocarcinoma), read-out: Cytotoxic studies IC50 HCT116
[17] = MDA-MB-468 cells (breast carcinoma), read-out: Cytotoxic studies IC50 MDA-MB-468

Structure (SMILES) | IC50 at 48 h [1] [µM] | remaining activity at 1 µM [2] [%] | remaining activity at 10 µM [2] [%] | remaining activity at 1 µM [3] [%] | remaining activity at 10 µM [3] [%] | remaining activity at 1 µM [4] [%] | remaining activity at 10 µM [4] [%] | remaining activity at 1 µM [5] [%] | remaining activity at 10 µM [5] [%] | remaining activity at 1 µM [6] [%] | remaining activity at 10 µM [6] [%] | remaining activity at 1 µM [7] [%] | remaining activity at 10 µM [7] [%] | IC50 at 48 h [8] [µM] | IC50 at 48 h [9] [µM] | IC50 at 48 h [10, 16] [µM] | IC50 at 48 h [10, 17] [µM] | remaining activity at 1 µM [11] [%] | remaining activity at 10 µM [11] [%] | IC50 at 48 h [12] [µM] | further results
CC(C)(C)OC(=O)N[C@H]1CC[C@H](n2cc(COc3cccc4cnc(Nc5cccc(Cl)c5)nc34)nn2)CC1 [18a, tert-Butyl ((trans)-4-(4-(((2-((3-chlorophenyl)amino)quinazolin-8-yl)oxy)methyl)-1H-1,2,3-triazol-1-yl)cyclohexyl)carbamate] | > 25 | 77 | 74 | 93 | 70 | ≥ 100 | 78 | 92 | ≥ 100 | 69 | 58 | ≥ 100 | 66 | 16 | 4 | 5 | 15 | 88 | 60 | 7 | remaining activity at 1 µM [13]: 92%; remaining activity at 10 µM [13]: 59%; IC50 at 48 h [14]: > 25 µM; remaining activity at 1 µM [15]: 77%; remaining activity at 10 µM [15]: 70%
CC(C)(C)OC(=O)N[C@H]1CC[C@@H](n2cc(COc3cccc4cnc(Nc5cccc(Cl)c5)nc34)nn2)CC1 [15a, tert-Butyl ((cis)-4-(4-(((2-((3-chlorophenyl)amino)quinazolin-8-yl)oxy)methyl)-1H-1,2,3-triazol-1-yl)cyclohexyl)carbamate] | 23 | 86 | 74 | 98 | 60 | ≥ 100 | 97 | ≥ 100 | 97 | ≥ 100 | 96 | 95 | 63 | > 25 | 7 | 7 | 18 | ≥ 100 | 86 | 3 | remaining activity at 1 µM [13]: 64%; remaining activity at 10 µM [13]: 55%; IC50 at 48 h [14]: > 25 µM; remaining activity at 1 µM [15]: 92%; remaining activity at 10 µM [15]: 74%
N[C@H]1CC[C@@H](n2cc(COc3cccc4cnc(Nc5cccc(Cl)c5)nc34)nn2)CC1 [16a, 8-((1-((cis)-4-Aminocyclohexyl)-1H-1,2,3-triazol-4-yl)methoxy)-N-(3-chlorophenyl)quinazolin-2-amine hydrochloride] | 8 | 54 | 14 | 17 | 8 | 87 | 21 | 82 | 33 | 75 | 36 | 84 | 36 | 9 | 8 | 10 | 9 | 32 | 49 | 9 | pIC50 ([3]; mouse CLK1 orthologue, read-out: IC50 MmCLK1): 6.66; pIC50 ([7]; 10 µM ATP, duplicate): 5.56; remaining activity at 1 µM [13]: 68%; remaining activity at 10 µM [13]: 12%; IC50 at 48 h [14]: 9 µM; remaining activity at 1 µM [15]: 72%; remaining activity at 10 µM [15]: 31%

— article PMC9571063 (Molecules, 2022)
